# Experiments:
# Format in all cases: functional
# Bacillus subtilis [1] = assay: Growth inhibition of Bacillus subtilis at 91 ug/ml
# Pseudomonas fluorescens [2] = assay: Growth inhibition of Pseudomonas fluorescens at 91 ug/ml
# KB [3] = assay: Plating efficiency of human KB cells at 150 ug/ml
# KB [4] = assay: Growth inhibition of human KB cells at 150 ug/ml; conditions: read-out: GI
# KB [5] = assay: Plating efficiency of human KB cells at 25 ug/ml
# KB [6] = assay: Growth inhibition of human KB cells at 25 ug/ml; conditions: read-out: GI
# KB [7] = assay: Plating efficiency of human KB cells at 12.5 ug/ml
# KB [8] = assay: Growth inhibition of human KB cells at 12.5 ug/ml; conditions: read-out: GI
# Bacillus subtilis [9] = assay: Growth inhibition of Bacillus subtilis at 45 ug/ml
# Pseudomonas fluorescens [10] = assay: Growth inhibition of Pseudomonas fluorescens at 45 ug/ml
# Bacillus subtilis [11] = assay: Growth inhibition of Bacillus subtilis at 5 ug/ml; conditions: for inhibition at 5 µg/mL: Bacillus subtilis
# KB [12] = assay: Plating efficiency of human KB cells at 50 ug/ml
# KB [13] = assay: Growth inhibition of human KB cells at 50 ug/ml; conditions: read-out: GI
# Pseudomonas fluorescens [14] = assay: Growth inhibition of Pseudomonas fluorescens at 90 ug/ml
# Bacillus subtilis [15] = assay: Growth inhibition of Bacillus subtilis at 90 ug/ml
# Pseudomonas fluorescens [16] = assay: Growth inhibition of Pseudomonas fluorescens at 5 ug/ml
# Bacillus subtilis [17] = assay: Growth inhibition of Bacillus subtilis at 50 ug/ml
# Pseudomonas fluorescens [18] = assay: Growth inhibition of Pseudomonas fluorescens at 50 ug/ml
# Bacillus subtilis [19] = assay: Growth inhibition of Bacillus subtilis at 20 ug/ml
# Bacillus subtilis [20] = assay: Growth inhibition of Bacillus subtilis at 10 ug/ml
structure (smiles),measurement,setting,value
COc1ccc2c(c1)CCc1cnoc1-2,inhibition at 91 µg/mL,Bacillus subtilis [1],100%
same,inhibition at 91 µg/mL,Pseudomonas fluorescens [2],0%
same,Activity,KB [3],0%
same,inhibition of growth at 150 µg/mL,KB [4],100%
same,Activity,KB [5],67%
same,inhibition of growth at 25 µg/mL,KB [6],33%
same,Activity,KB [7],100%
same,inhibition of growth at 12.5 µg/mL,KB [8],0%
CCCCCCOc1ccc2c(c1)CCc1cnoc1-2,inhibition at 91 µg/mL,Bacillus subtilis [1],100%
same,inhibition at 45 µg/mL,Bacillus subtilis [9],0%
same,inhibition at 45 µg/mL,Pseudomonas fluorescens [10],0%
COc1ccc2c(c1)CCc1cnn([C@@H]3O[C@H](COC(C)=O)[C@@H](OC(C)=O)[C@H](OC(C)=O)[C@H]3OC(C)=O)c1-2,inhibition at 91 µg/mL,Bacillus subtilis [1],100%
same,inhibition at 5 µg/mL,Bacillus subtilis [11],100%
same,inhibition at 91 µg/mL,Pseudomonas fluorescens [2],100%
same,Activity,KB [12],0%
same,inhibition of growth at 50 µg/mL,KB [13],100%
COc1ccc2c(c1)CCc1c[nH]nc1-2,inhibition at 91 µg/mL,Bacillus subtilis [1],0%
COc1ccc2c(c1)CCc1cnn(CCSCCCl)c1-2,inhibition at 45 µg/mL,Bacillus subtilis [9],100%
CN(C)CCOc1ccc2c3c(ccc2c1)-c1[nH]ncc1CC3,inhibition at 91 µg/mL,Bacillus subtilis [1],100%
same,inhibition at 91 µg/mL,Pseudomonas fluorescens [2],0%
COc1ccc2c3c(ccc2c1)-c1[nH]ncc1CC3,inhibition at 91 µg/mL,Bacillus subtilis [1],7.8%
same,inhibition at 90 µg/mL,Pseudomonas fluorescens [14],48%
C[n+]1cccc2c1CCc1cn[nH]c1-2,inhibition at 91 µg/mL,Bacillus subtilis [1],50%
COc1ccc2c(c1)CCc1sc(N)nc1-2.Cl,inhibition (INH),Bacillus subtilis [11],47%
same,inhibition at 90 µg/mL,Bacillus subtilis [15],100%
same,inhibition at 5 µg/mL,Pseudomonas fluorescens [16],0%
same,inhibition at 90 µg/mL,Pseudomonas fluorescens [14],25%
CCCCCCOc1ccc2c(c1)CCc1cn[nH]c1-2,inhibition at 45 µg/mL,Bacillus subtilis [9],100%
same,inhibition at 45 µg/mL,Pseudomonas fluorescens [10],0%
CCCCCCCCCCCCCCCCOc1ccc2c(c1)CCc1cn[nH]c1-2,inhibition at 91 µg/mL,Bacillus subtilis [1],0%
CCCCCCOc1ccc2c(c1)CCc1cnn(CCN(CCCl)CCCl)c1-2,inhibition at 5 µg/mL,Bacillus subtilis [11],100%
CN(C)CCOc1ccc2c(c1)CCc1cn[nH]c1-2,inhibition at 91 µg/mL,Bacillus subtilis [1],0%
CCCCCCOc1ccc2c3c(ccc2c1)-c1[nH]ncc1CC3,inhibition at 91 µg/mL,Bacillus subtilis [1],100%
CCCCCCOc1ccc2c(c1)CCc1cnn([C@@H]3O[C@H](COC(C)=O)[C@@H](OC(C)=O)[C@H](OC(C)=O)[C@H]3OC(C)=O)c1-2,inhibition at 91 µg/mL,Bacillus subtilis [1],100%
same,inhibition at 50 µg/mL,Bacillus subtilis [17],100%
same,inhibition at 91 µg/mL,Pseudomonas fluorescens [2],0%
same,inhibition at 50 µg/mL,Pseudomonas fluorescens [18],0%
CCCCCCOc1ccc2c(c1)CCc1sc(N)nc1-2.Cl,inhibition (INH),Bacillus subtilis [11],12%
same,inhibition at 90 µg/mL,Bacillus subtilis [15],60%
same,inhibition at 5 µg/mL,Pseudomonas fluorescens [16],11%
same,inhibition at 90 µg/mL,Pseudomonas fluorescens [14],25%
CCCCCCOc1ccc2c(c1)CCc1sc(N)nc1-2,inhibition (INH),Bacillus subtilis [11],100%
same,Activity,KB [5],0%
same,inhibition of growth at 25 µg/mL,KB [6],100%
COc1ccc2c(c1)CCc1cnn(CCN(CCCl)CCCl)c1-2,inhibition at 20 µg/mL,Bacillus subtilis [19],100%
COc1ccc2c(c1)CC[C@]1(C)C(=O)NN=C21,inhibition at 91 µg/mL,Bacillus subtilis [1],0%
COc1ccc2c(c1)CCc1sc(N)nc1-2,inhibition at 5 µg/mL,Bacillus subtilis [11],40%
CCCCCCOc1ccc2c(c1)CC[C@]1(C)C(=O)NN=C21,inhibition at 91 µg/mL,Bacillus subtilis [1],0%
same,inhibition at 91 µg/mL,Pseudomonas fluorescens [2],0%
c1cnc2c(c1)-c1[nH]ncc1CC2,inhibition at 10 µg/mL,Bacillus subtilis [20],100%
same,inhibition at 90 µg/mL,Pseudomonas fluorescens [14],0%
OCCOc1ccc2c(c1)CCc1cn[nH]c1-2,inhibition at 91 µg/mL,Bacillus subtilis [1],0%
CN(C)CCOc1ccc2c3c(ccc2c1)C(=O)CCC3,inhibition at 91 µg/mL,Bacillus subtilis [1],100%
